Counter-ions that a name gives are not always drawn.
Assays:
Type in all cases: binding
[1] = target: T1, Recombinant human integrin αVβ3 (Homo sapiens, UniProt P05106+P06756); assay: Solid Phase Receptor Assay for αVβ3 function; conditions: plate-bound human vitronectin; read-out: αVβ3 SPRA IC50
T1 construct: purchased R&D Systems 3050-AV
Procedure: C. […] Wells were washed 3 times with 150 μL TBS+ and then 150 μL of blocking buffer (TBS+ with 1% bovine serum albumin, Sigma A7906) was added. The plate was incubated for 1 hr at 37° C. and then washed 3× with TBS+ buffer. […] Compounds were diluted to 20 μM and then 1 μL was added to each well of the plate according to a standard template with each sample repeated in triplicate. After incubation for two hours at room temperature, the plate was washed 3× with 150 μL of TBS+ buffer. To each well, 50 μL of biotinylated anti-αV antibody (R&D Systems, BAF1219) at 0.5 μg/mL in TBS+/0.1% BSA were added and the plate covered and incubated for 1 hr at room temperature. After washing the plate 3× with 150 μL of TBS+ buffer, 50 μL of streptavidin-conjugated horseradish peroxidase (R&D Systems, DY998) diluted in TBS+ blocking buffer were added to the wells and the plate incubated for 20 min at room temperature. The plate was washed 3× with TBS+ buffer followed by 50 μL of TMB substrate (Sigma, T4444) added to each well in the dark and the plate was incubated for 25 min at room temperature. 25 μL of 1.0 M phosphoric acid was added as a stop solution and the plates were read at 450 nm using a Spectramax plate reader.

[2] = target: T2, Recombinant human integrin αvβ1 (Homo sapiens, UniProt P05556+P06756); assay: Solid Phase Receptor Assay (SPRA) for αVβ1 function; conditions: plate-bound human fibronectin
T2 construct: purchased R&D Systems 6579-AV
Procedure: B. Solid Phase Receptor Assay (SPRA) for αVβ1 Function
Wells were washed 3 times with 150 μL TBS+ and then 150 μL of blocking buffer (TBS+ with 1% bovine serum albumin, Sigma A7906) was added. The plate was incubated for 1 hr at 37° C. and then washed 3× with TBS+ buffer. […] Compounds were diluted to 20 μM and 1 μL was added to each well of the plate according to a standard template with each sample repeated in triplicate. After incubation for two hours at room temperature, the plate was washed 3× with 150 μL of TBS+ buffer. To each well, 50 μL of biotinylated anti-αV antibody (R&D Systems, BAF1219) at 1 μg/mL in TBS+/0.1% BSA were added and the plate covered and incubated for 1 hr at room temperature. After washing the plate 3× with 150 μL of TBS+ buffer, 50 μL of streptavidin-conjugated horseradish peroxidase (R&D Systems, DY998) diluted in TBS+ blocking buffer were added to the wells and the plate incubated for 20 min at room temperature. The plate was washed 3× with TBS+ buffer followed by 50 μL of TMB substrate (Sigma, T4444) added to each well in the dark and the plate incubated for 25 min at room temperature. 25 μL of 1.0 M phosphoric acid was added as a stop solution and the plates were read at 450 nm using a Spectramax plate reader.

[3] = target: T3, Recombinant human integrin α5β1 (Homo sapiens, UniProt P05556+P08648); assay: Solid Phase Receptor Assay (SPRA) for α5β1 function; conditions: plate-bound human fibronectin
T3 construct: purchased R&D Systems 3230-A5
Procedure: A. Solid Phase Receptor Assay (SPRA) for α5β1 Function
Wells were washed 3 times with 150 μL TBS+ and then 150 μL of blocking buffer (TBS+ with 1% bovine serum albumin, Sigma A7906) was added. The plate was incubated for 1 hr at 37° C. and then washed 3× with TBS+ buffer. […] Compounds were diluted to 20 μM and then 1 μL was added to each well of the plate according to a standard template with each sample repeated in triplicate. After incubation for two hours at room temperature, the plate was washed 3× with 150 μL of TBS+ buffer. To each well, 50 μL of biotinylated anti-α5 antibody (R&D Systems, BAF1864) at 0.5 μg/mL in TBS+/0.1% BSA were added and the plate covered and incubated for 1 hr at room temperature. After washing the plate 3× with 150 μL of TBS+ buffer, 50 μL of streptavidin-conjugated horseradish peroxidase (R&D Systems, DY998) diluted in TBS+ blocking buffer were added to the wells and the plate incubated for 20 min at room temperature. The plate was washed 3× with TBS+ buffer followed by 50 μL of room temperature TMB substrate (Sigma, T4444) added to each well in the dark and the plate incubated for 25 min at room temperature. 25 μL of 1.0 M phosphoric acid was added as a stop solution and the plates were read at 450 nm using a Spectramax plate reader.

[4] = target: T4, Recombinant human integrin αVβ8 (Homo sapiens, UniProt P06756+P26012); assay: Solid Phase Receptor Assay for αVβ8 function; conditions: plate-bound human LAP; read-out: αVβ8 SPRA IC50
T4 construct: purchased R&D Systems 4135-AV
Procedure: F. Solid Phase Receptor Assay (SFRA) for αVβ8 Function
Wells were washed 3 times with 150 μL TBS+ and then 150 μL of blocking buffer (TBS+ with 1% bovine serum albumin, Sigma A7906) was added. The plate was incubated for 1 hr at 37° C. and then washed 3× with TBS+. […] Compounds were diluted to 20 μM and 1 μL was added to each well of the plate according to a standard template with each sample repeated in triplicate. After incubation for two hours at room temperature, the plate was washed 3× with 150 μL of TBS+. To each well, 50 μL of biotinylated anti-αV antibody (R&D Systems, BAF1219) at 1 μg/mL in TBS+/0.1% BSA were added and the plate was covered and incubated for 1 hr at room temperature. After washing the plate 3× with 150 μL of TBS+ buffer, 50 μL of streptavidin-conjugated horseradish peroxidase (R&D Systems, DY998) diluted in TBS+ blocking buffer were added to the wells and the plate incubated for 20 min at room temperature. The plate was washed 3× with TBS+ followed by 50 μL of TMB substrate (Sigma T4444) added to each well in the dark and the plate incubated for 10 min at room temperature. 25 μL of 1.0 M phosphoric acid was added as a stop solution and the plates were read at 450 nm using a Spectramax plate reader.

T1 sequence (P06756 31-992 limits assumed): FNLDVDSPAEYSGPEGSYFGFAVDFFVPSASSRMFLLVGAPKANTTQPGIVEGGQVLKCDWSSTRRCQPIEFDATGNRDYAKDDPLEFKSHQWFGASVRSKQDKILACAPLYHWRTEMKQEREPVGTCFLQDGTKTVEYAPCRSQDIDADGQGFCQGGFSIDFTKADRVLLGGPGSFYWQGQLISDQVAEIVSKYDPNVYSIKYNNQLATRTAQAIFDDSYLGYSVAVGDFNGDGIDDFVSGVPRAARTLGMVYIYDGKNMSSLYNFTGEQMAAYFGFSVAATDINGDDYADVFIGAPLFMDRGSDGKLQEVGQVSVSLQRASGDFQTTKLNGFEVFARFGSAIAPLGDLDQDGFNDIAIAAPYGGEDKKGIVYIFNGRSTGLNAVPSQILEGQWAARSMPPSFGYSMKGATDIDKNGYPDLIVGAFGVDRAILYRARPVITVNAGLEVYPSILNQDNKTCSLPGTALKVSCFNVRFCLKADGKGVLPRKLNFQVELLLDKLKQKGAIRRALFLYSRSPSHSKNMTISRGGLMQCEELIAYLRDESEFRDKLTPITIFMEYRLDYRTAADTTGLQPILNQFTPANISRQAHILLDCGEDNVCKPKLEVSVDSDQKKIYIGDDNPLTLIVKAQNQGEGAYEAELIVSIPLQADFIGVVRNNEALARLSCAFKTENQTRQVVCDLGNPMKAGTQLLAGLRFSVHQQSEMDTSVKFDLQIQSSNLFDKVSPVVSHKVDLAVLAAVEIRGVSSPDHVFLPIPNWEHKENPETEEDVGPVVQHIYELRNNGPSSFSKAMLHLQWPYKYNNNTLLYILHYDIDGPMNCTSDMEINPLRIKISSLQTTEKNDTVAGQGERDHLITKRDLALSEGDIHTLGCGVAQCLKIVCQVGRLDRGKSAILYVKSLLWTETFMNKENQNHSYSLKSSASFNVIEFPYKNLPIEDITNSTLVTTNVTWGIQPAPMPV
T1 sequence (P05106 27-718 limits assumed): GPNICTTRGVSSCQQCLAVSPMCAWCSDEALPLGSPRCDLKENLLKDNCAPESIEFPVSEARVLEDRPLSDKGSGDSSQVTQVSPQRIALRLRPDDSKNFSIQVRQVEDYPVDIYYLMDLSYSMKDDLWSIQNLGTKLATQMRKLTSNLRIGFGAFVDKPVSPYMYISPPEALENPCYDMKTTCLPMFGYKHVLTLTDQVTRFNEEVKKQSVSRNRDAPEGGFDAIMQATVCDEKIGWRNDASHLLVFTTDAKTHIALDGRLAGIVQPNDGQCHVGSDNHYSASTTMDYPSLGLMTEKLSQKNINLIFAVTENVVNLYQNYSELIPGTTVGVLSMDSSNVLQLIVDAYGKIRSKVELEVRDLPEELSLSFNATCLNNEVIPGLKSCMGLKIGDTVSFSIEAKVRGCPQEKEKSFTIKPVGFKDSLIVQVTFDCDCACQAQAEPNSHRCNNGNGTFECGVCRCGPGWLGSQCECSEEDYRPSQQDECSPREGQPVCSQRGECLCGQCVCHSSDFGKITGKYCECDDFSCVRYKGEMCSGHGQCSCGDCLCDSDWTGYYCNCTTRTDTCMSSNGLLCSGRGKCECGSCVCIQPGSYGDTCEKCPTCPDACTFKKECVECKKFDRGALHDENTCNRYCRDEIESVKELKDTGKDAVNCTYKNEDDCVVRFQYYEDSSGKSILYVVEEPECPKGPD
T2 sequence (P06756 31-992 limits assumed): as the sequence (P06756 31-992 limits assumed) above
T2 sequence (P05556 21-728 limits assumed): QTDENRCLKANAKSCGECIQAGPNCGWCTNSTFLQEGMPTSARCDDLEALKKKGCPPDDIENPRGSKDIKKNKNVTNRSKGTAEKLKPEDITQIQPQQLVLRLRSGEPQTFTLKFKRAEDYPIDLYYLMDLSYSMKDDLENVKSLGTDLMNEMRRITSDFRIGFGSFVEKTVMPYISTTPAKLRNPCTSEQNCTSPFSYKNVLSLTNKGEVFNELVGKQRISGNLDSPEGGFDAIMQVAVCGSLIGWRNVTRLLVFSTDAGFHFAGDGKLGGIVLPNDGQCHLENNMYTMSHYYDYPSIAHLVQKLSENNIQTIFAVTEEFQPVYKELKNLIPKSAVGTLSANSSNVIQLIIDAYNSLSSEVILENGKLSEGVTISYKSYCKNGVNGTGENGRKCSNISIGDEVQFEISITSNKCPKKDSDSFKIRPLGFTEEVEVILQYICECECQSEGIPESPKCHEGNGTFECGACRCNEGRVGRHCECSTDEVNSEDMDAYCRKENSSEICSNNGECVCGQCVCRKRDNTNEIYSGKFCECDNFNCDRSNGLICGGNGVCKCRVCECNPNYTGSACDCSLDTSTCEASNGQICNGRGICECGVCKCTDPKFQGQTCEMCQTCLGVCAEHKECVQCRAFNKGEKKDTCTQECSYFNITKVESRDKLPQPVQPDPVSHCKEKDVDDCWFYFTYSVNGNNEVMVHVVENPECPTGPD
T4 sequence (P06756 31-992 limits assumed): as the sequence (P06756 31-992 limits assumed) above
T4 sequence (P26012 43-684 limits assumed): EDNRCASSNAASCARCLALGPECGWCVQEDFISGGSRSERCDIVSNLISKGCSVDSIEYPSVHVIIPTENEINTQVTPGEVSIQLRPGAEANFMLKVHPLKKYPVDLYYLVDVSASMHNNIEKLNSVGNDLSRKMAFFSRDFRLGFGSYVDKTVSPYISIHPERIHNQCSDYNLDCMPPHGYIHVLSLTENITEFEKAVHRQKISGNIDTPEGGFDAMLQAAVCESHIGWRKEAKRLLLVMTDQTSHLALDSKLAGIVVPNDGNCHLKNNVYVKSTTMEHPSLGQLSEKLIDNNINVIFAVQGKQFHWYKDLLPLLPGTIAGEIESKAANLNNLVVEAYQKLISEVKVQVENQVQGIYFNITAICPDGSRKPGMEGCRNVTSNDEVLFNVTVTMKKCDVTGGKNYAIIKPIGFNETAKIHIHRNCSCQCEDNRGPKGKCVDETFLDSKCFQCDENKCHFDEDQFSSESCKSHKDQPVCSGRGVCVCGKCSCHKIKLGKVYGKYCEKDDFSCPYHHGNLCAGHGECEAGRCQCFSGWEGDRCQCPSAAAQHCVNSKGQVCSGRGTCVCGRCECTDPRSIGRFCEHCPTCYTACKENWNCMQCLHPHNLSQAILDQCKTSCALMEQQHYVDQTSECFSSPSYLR
T3 sequence (P08648 42-995 limits assumed): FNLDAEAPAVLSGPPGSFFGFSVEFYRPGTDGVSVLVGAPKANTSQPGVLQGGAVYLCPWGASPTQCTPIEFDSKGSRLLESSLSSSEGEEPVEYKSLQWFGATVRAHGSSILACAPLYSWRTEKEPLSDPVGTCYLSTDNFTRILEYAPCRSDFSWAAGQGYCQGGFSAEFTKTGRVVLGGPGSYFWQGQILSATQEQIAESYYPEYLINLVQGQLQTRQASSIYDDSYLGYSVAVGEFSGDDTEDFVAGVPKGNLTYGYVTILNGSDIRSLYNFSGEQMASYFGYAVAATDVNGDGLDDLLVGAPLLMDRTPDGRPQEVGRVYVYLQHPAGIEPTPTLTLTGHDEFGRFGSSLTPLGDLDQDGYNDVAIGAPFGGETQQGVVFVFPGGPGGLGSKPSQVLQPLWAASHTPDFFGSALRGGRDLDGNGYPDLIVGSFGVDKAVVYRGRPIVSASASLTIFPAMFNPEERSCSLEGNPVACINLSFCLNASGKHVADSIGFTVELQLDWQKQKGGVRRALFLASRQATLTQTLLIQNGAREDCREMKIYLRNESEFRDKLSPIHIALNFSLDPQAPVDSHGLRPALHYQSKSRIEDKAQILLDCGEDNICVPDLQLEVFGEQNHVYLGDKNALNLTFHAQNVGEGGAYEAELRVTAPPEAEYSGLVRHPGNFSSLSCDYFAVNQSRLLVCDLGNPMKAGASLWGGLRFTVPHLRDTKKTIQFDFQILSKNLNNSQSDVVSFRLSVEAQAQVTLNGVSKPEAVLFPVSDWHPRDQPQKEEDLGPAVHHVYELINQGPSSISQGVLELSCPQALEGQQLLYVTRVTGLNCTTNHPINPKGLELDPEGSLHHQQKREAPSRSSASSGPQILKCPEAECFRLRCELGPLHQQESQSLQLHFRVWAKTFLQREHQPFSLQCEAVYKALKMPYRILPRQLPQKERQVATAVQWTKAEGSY
T3 sequence (P05556 21-728 limits assumed): as the sequence (P05556 21-728 limits assumed) above

Row | SMILES | IC50 [1] [nM] | IC50 [2] [nM] | IC50 [3] [nM] | IC50 [4] [nM]
1 | COc1c(C(CC(=O)O)Cc2cc(OCCc3ccc4c(n3)NCCC4)n(C)n2)cc(C(C)(C)C)cc1C(C)(C)C (stereo not drawn) [Example 11, 3-(3,5-di-tert-butyl-2-methoxyphenyl)-4-(1-methyl-5-(2-(5,6,7,8-tetrahydro-1,8-naphthyridin-2-yl)ethoxy)-1H-pyrazol-3-yl)butanoic acid] | 13000 | 800 | 15000 | 740
2 | COCC1(c2cc(C(CC(=O)O)Cc3csc(CCCc4ccc5c(n4)NCCC5)n3)cc(C(C)(C)C)c2)CCOCC1 (stereo not drawn) [Example 32, 3-[3-tert-butyl-5-[4-(methoxymethyl)tetrahydropyran-4-yl]phenyl]-4-[2-[3-(5,6,7,8-tetrahydro-1,8-naphthyridin-2-yl)propyl]thiazol-4-yl]butanoic acid] | 600 | 7 | 37 | 14
3 | COc1ccc(C(C)(C)O)cc1C(CC(=O)O)Cc1cc(OCCc2ccc3c(n2)NCCC3)n(C)n1 (stereo not drawn) [Example 22, 3-(5-(2-hydroxypropan-2-yl)-2-methoxyphenyl)-4-(1-methyl-5-(2-(5,6,7,8-tetrahydro-1,8-naphthyridin-2-yl)ethoxy)-1H-pyrazol-3-yl)butanoic acid] | 5 | 3 | 2 | 79
4 | Cn1nc(C[C@@H](CC(=O)O)c2cc3c(c(C(C)(C)C)c2)OCO3)cc1OCCc1ccc2c(n1)NCCC2 [Example 47] | 1.8 | 0.92 | 6.2 | 34
5 | CC(C)(C)c1ccc(Br)c(C(CC(=O)O)Cc2csc(CCCc3ccc4c(n3)NCCC4)n2)c1 (stereo not drawn) [Example 34] | 2500 | 4 | 69 | 140
6 | COc1ccc(C2(C(F)F)CC2)cc1C(CC(=O)O)Cc1csc(CCCc2ccc3c(n2)NCCC3)n1 (stereo not drawn) [Example 36, 3-(5-(1-(difluoromethyl)cyclopropyl)-2-methoxyphenyl)-4-(2-(3-(5,6,7,8-tetrahydro-1,8-naphthyridin-2-yl)propyl)thiazol-4-yl)butanoic acid] | 840 | 2 | 7 | 29
7 | Cn1nc(CC(CC(=O)O)c2cc(C(C)(C)C)ccc2Br)cc1OCCc1ccc2c(n1)NCCC2 (stereo not drawn) [Example 17, 3-(2-bromo-5-(tert-butyl)phenyl)-4-(1-methyl-5-(2-(5,6,7,8-tetrahydro-1,8-naphthyridin-2-yl)ethoxy)-1H-pyrazol-3-yl)butanoic acid] | 930 | 14 | 120 | 110
8 | CC(C)c1cc(C#N)cc(C(CC(=O)O)Cc2cc(OCCc3ccc4c(n3)NCCC4)n(C)n2)c1 (stereo not drawn) [Example 2, 3-(3-cyano-5-isopropylphenyl)-4-(1-methyl-5-(2-(5,6,7,8-tetrahydro-1,8-naphthyridin-2-yl)ethoxy)-1H-pyrazol-3-yl)butanoic acid trifluoroacetic acid] | 6 | 9 | 7 | 7
9 | Cn1nc(CC(CC(=O)O)c2cc(C(C)(C)C#N)cc(C(C)(C)C#N)c2)cc1OCCc1ccc2c(n1)NCCC2 (stereo not drawn) [Example 41, 3-(3,5-bis(2-cyanopropan-2-yl)phenyl)-4-(1-methyl-5-(2-(5,6,7,8-tetrahydro-1,8-naphthyridin-2-yl)ethoxy)-1H-pyrazol-3-yl)butanoic acid trifluoroacetate] | 9 | 1 | 0.3 | 1
10 | COc1ccc(C2COC2)cc1C(CC(=O)O)Cc1cc(OCCc2ccc3c(n2)NCCC3)n(C)n1 (stereo not drawn) [Example 23, 3-[2-methoxy-5-(oxetan-3-yl)phenyl]-4-[1-methyl-5-[2-(5,6,7,8-tetrahydro-1,8-naphthyridin-2-yl)ethoxy]pyrazol-3-yl]butanoic acid] | 26 | 8 | 36 | 190
11 | COc1ccc(C2=CCOCC2)cc1[C@@H](CC(=O)O)Cc1csc(CCCc2ccc3c(n2)NCCC3)n1 [Example 37B, (R)-3-(5-(3,6-dihydro-2H-pyran-4-yl)-2-methoxyphenyl)-4-(2-(3-(5,6,7,8-tetrahydro-1,8-naphthyridin-2-yl)propyl)thiazol-4-yl)butanoic acid trifluoroacetate] | 940 | 190 | 2800 | 5600
12 | Cn1nc(CC(CC(=O)O)c2cc(Br)cc(S(F)(F)(F)(F)F)c2)cc1OCCc1ccc2c(n1)NCCC2 (stereo not drawn) [Example 3, 3-[3-bromo-5-(pentafluoro-sulfanyl)phenyl]-4-[1-methyl-5-[2-(5,6,7,8-tetrahydro-1,8-naphthyridin-2-yl)ethoxy]pyrazol-3-yl]butanoic acid] | 8 | 12 | 31 | 13
13 | COc1cc(C(CC(=O)O)Cc2cc(OCCc3ccc4c(n3)NCCC4)n(C)n2)cc(C23CC4CC(CC(C4)C2)C3)c1OCc1ccccc1 (stereo not drawn) [Example 13, 3-[3-(1-adamantyl)-4-benzyloxy-5-methoxy-phenyl]-4-[1-methyl-5-[2-(5,6,7,8-tetrahydro-1,8-naphthyridin-2-yl)ethoxy]pyrazol-3-yl]butanoic acid] | 31 | 21 | 210 | 540
14 | Cn1nc(CC(CC(=O)O)c2cc(C(C)(C)C)ccc2F)cc1OCCc1ccc2c(n1)NCCC2 (stereo not drawn) [Example 19, 3-(5-(tert-butyl)-2-fluorophenyl)-4-(1-methyl-5-(2-(5,6,7,8-tetrahydro-1,8-naphthyridin-2-yl)ethoxy)-1H-pyrazol-3-yl)butanoic acid] | 6 | 7 | 10 | 58
15 | Cn1nc(CC(CC(=O)O)c2cc3c(c(C(C)(C)C)c2)OCO3)cc1OCCc1ccc2c(n1)NCCC2 (stereo not drawn) [Example 15] | 9 | 3 | 28 | 120

Source: patent US20210284638A1 (Saint Louis University, priority 2018, published 2021)
